Measurements as given in paper PMC3878165 (Bioorganic & Medicinal Chemistry Letters, 2013).

Target: SARS-CoV 3CLpro (Severe acute respiratory syndrome coronavirus, UniProt P0C6U8)
Assay type: biochemical

SMILES	3CLpro activity in words	loss in inhibition/activity
CC(C)(C)NC(=O)C(c1ccsc1)N(C(=O)Cn1nnc2ccccc21)c1ccc(NC(=O)C2CC2)cc1 (centres unmarked) [13f]	loss of inhibition	
CC(C)COC(=O)Nc1ccc(N(C(=O)Cn2nnc3ccccc32)C(C(=O)NC(C)(C)C)c2ccsc2)cc1 (centres unmarked) [13l]	weak or inactive	
CC(C)(C)NC(=O)C(c1ccsc1)N(C(=O)Cn1nnc2ccccc21)c1ccc(NC(=O)C(C)(C)C)cc1 (centres unmarked) [13e]		three-fold
O=C(Nc1ccc(N(Cc2ccsc2)C(=O)Cn2nnc3ccccc32)cc1)C1CCCCC1 [16g]	weak inhibitor	
CC(C)(C)NC(=O)C(c1ccsc1)N(C(=O)Cn1nnc2ccccc21)c1ccc(NC(=O)C2CCCCC2)cc1 (centres unmarked) [13h]	loss of inhibition	
O=C(Cn1nnc2ccccc21)N(Cc1ccsc1)c1ccc(NCc2ccccc2)cc1 [16k]	potency comparable to probe ML300	
O=C(Nc1ccc(N(Cc2ccsc2)C(=O)Cn2nnc3ccccc32)cc1)c1ccccc1 [16h]	lack of activity	
CNc1ccc(N(Cc2ccsc2)C(=O)Cn2nnc3ccccc32)cc1 [16j]	potency comparable to probe ML300	
CC(C)(C)NC(=O)C(c1ccsc1)N(C(=O)Cn1nnc2ccccc21)c1ccc(NS(C)(=O)=O)cc1 (centres unmarked) [13b]		three-fold
COc1ncc(-c2ccc(N(Cc3ccsc3)C(=O)Cn3nnc4ccccc43)cc2)cn1 [17e]	micromolar activity	
CC(=O)Nc1ccc(N(C(=O)Cn2nnc3ccccc32)C(C(=O)NC(C)(C)C)c2ccsc2)cc1 (centres unmarked) [13a]	moderate micromolar activity	
